Test results taken from PubChem BioAssay AID1745844 (Carcinogenic Potency Database (CPDB), 2022).
Where “and” joins values, the source holds several entries; their conditions need not be identical. Identical values can stand only once. Calls of active or inactive are those of the source. The rule behind the calls is not given here.

System: rodent lifetime carcinogenesis bioassay, tumor incidence TD50
Assay: chronic cancer bioassays in animals – CPDB, compiled studies (AID 1745844)

For `ClC=C(Cl)Cl`, the carcinogen call (hamster, strain Syrian Golden, females, inhaled, site: any site (literature study), lesion: benign tumor, dosed 78 weeks, study length 130 weeks) was “negative (inactive)”, the TD50 (hamster, strain Syrian Golden, females, inhaled, site: any site (literature study), lesion: malignant tumor, dosed 78 weeks, study length 130 weeks) was 9220 mg/kg/day (inactive) and the carcinogen call (hamster, strain Syrian Golden, females, inhaled, site: liver, lesion: several types, types named in the paper, dosed 78 weeks, study length 130 weeks) was “negative (inactive)”. The TD50 (hamster, strain Syrian Golden, males, inhaled, site: any site (literature study), lesion: benign tumor, dosed 78 weeks, study length 130 weeks) was 5640 mg/kg/day (inactive), the carcinogen call (hamster, strain Syrian Golden, males, inhaled, site: any site (literature study), lesion: malignant tumor, dosed 78 weeks, study length 130 weeks) was “negative (inactive)” and the carcinogen call (hamster, strain Syrian Golden, males, inhaled, site: liver, lesion: several types, types named in the paper, dosed 78 weeks, study length 130 weeks) was “negative (inactive)”. For the same compound, the TD50 (mouse, strain B6C3F1, females, by gavage, site: any site (literature study), lesion: several types, types named in the paper, dosed 78 weeks, study length 90 weeks) was 1850 mg/kg/day, the TD50 (mouse, strain B6C3F1, females, by gavage, site: any site (literature study), lesion: several types, types named in the paper, dosed 103 weeks, study length 105 weeks) was 359 mg/kg/day and the TD50 (mouse, strain B6C3F1, females, by gavage, site: liver + multiple organs + spleen, lesion: malignant lymphoma, histiocytic type + malignant lymphoma, mixed type + malignant lymphoma, lymphocytic type + malignant lymph, dosed 103 weeks, study length 105 weeks) was 1350 mg/kg/day and 1470 mg/kg/day. For the same compound, the TD50 (mouse, strain B6C3F1, females, by gavage, site: liver, lesion: hepatocellular adenoma + hepatocellular carcinoma + neoplastic nodule, dosed 78 weeks, study length 90 weeks) was 1930 mg/kg/day, the TD50 (mouse, strain B6C3F1, females, by gavage, site: liver, lesion: hepatocellular adenoma + hepatocellular carcinoma + neoplastic nodule, dosed 103 weeks, study length 105 weeks) was 411 mg/kg/day and the TD50 (mouse, strain B6C3F1, females, by gavage, site: liver, lesion: hepatocellular adenoma + hepatocellular carcinoma, dosed 103 weeks, study length 105 weeks) was 411 mg/kg/day. For the same compound, the TD50 (mouse, strain B6C3F1, females, by gavage, site: liver, lesion: hepatocellular adenoma, dosed 103 weeks, study length 105 weeks) was 579 mg/kg/day, the TD50 (mouse, strain B6C3F1, females, by gavage, site: liver, lesion: hepatocellular carcinoma, dosed 78 weeks, study length 90 weeks) was 1930 mg/kg/day and the TD50 (mouse, strain B6C3F1, females, by gavage, site: liver, lesion: hepatocellular carcinoma, dosed 103 weeks, study length 105 weeks) was 673 mg/kg/day. For the same compound, the TD50 (mouse, strain B6C3F1, females, by gavage, site: lung, lesion: alveolar/bronchiolar adenoma + alveolar/bronchiolar carcinoma, dosed 78 weeks, study length 90 weeks) was 4350 mg/kg/day, the TD50 (mouse, strain B6C3F1, females, by gavage, site: lung, lesion: alveolar/bronchiolar adenoma + alveolar/bronchiolar carcinoma, dosed 103 weeks, study length 105 weeks) was 3850 mg/kg/day and the TD50 (mouse, strain B6C3F1, females, by gavage, site: lung, lesion: alveolar/bronchiolar adenoma, dosed 103 weeks, study length 105 weeks) was 2780 mg/kg/day. It also gave a TD50 (mouse, strain B6C3F1, females, by gavage, site: multiple organs, lesion: malignant lymphoma, lymphocytic type, dosed 103 weeks, study length 105 weeks) of 4880 mg/kg/day, a TD50 (mouse, strain B6C3F1, females, inhaled, site: any site (literature study), lesion: malignant tumor, dosed 78 weeks, study length 154 weeks) of 2080 mg/kg/day and a TD50 (mouse, strain B6C3F1, females, inhaled, site: any site (literature study), lesion: several types, types named in the paper, dosed 78 weeks, study length 154 weeks) of 1320 mg/kg/day. For the same compound, the TD50 (mouse, strain B6C3F1, females, inhaled, site: liver, lesion: hepatoma, dosed 78 weeks, study length 154 weeks) was 13600 mg/kg/day, the TD50 (mouse, strain B6C3F1, females, inhaled, site: lung, lesion: one or several types, types not named, dosed 78 weeks, study length 154 weeks) was 6320 mg/kg/day and the TD50 (mouse, strain B6C3F1, females, inhaled, site: thyroid gland, lesion: adenoma, dosed 78 weeks, study length 154 weeks) was 2.23e+06 mg/kg/day. For the same compound, the TD50 (mouse, strain B6C3F1, females, inhaled, site: thyroid gland, lesion: carcinoma, dosed 78 weeks, study length 154 weeks) was 131000 mg/kg/day, the TD50 (mouse, strain B6C3F1, males, by gavage, site: Harderian gland, lesion: adenoma, NOS + acinar-cell adenoma + papillary adenoma, dosed 103 weeks, study length 105 weeks) was 3830 mg/kg/day and the TD50 (mouse, strain B6C3F1, males, by gavage, site: any site (literature study), lesion: several types, types named in the paper, dosed 78 weeks, study length 90 weeks) was 553 mg/kg/day. The TD50 (mouse, strain B6C3F1, males, by gavage, site: any site (literature study), lesion: several types, types named in the paper, dosed 103 weeks, study length 105 weeks) was 332 mg/kg/day, the TD50 (mouse, strain B6C3F1, males, by gavage, site: liver, lesion: hepatocellular adenoma + hepatocellular carcinoma + neoplastic nodule, dosed 78 weeks, study length 90 weeks) was 421 mg/kg/day and the TD50 (mouse, strain B6C3F1, males, by gavage, site: liver, lesion: hepatocellular adenoma + hepatocellular carcinoma + neoplastic nodule, dosed 103 weeks, study length 105 weeks) was 239 mg/kg/day. It also gave a TD50 (mouse, strain B6C3F1, males, by gavage, site: liver, lesion: hepatocellular adenoma + hepatocellular carcinoma, dosed 103 weeks, study length 105 weeks) of 239 mg/kg/day, a TD50 (mouse, strain B6C3F1, males, by gavage, site: liver, lesion: hepatocellular adenoma, dosed 103 weeks, study length 105 weeks) of 855 mg/kg/day and a TD50 (mouse, strain B6C3F1, males, by gavage, site: liver, lesion: hepatocellular carcinoma, dosed 78 weeks, study length 90 weeks) of 421 mg/kg/day. The TD50 (mouse, strain B6C3F1, males, by gavage, site: liver, lesion: hepatocellular carcinoma, dosed 103 weeks, study length 105 weeks) was 294 mg/kg/day, the TD50 (mouse, strain B6C3F1, males, by gavage, site: lung, lesion: alveolar/bronchiolar adenoma + alveolar/bronchiolar carcinoma, dosed 78 weeks, study length 90 weeks) was 7160 mg/kg/day and the TD50 (mouse, strain B6C3F1, males, by gavage, site: lung, lesion: alveolar/bronchiolar adenoma + alveolar/bronchiolar carcinoma, dosed 103 weeks, study length 105 weeks) was 4250 mg/kg/day. The TD50 (mouse, strain B6C3F1, males, in drinking water, site: liver, lesion: hepatocellular adenoma, dosed 61 weeks, study length 61 weeks) was 502 mg/kg/day, the TD50 (mouse, strain B6C3F1, males, in drinking water, site: liver, lesion: hepatocellular carcinoma, dosed 61 weeks, study length 61 weeks) was 16 mg/kg/day and the TD50 (mouse, strain B6C3F1, males, inhaled, site: liver, lesion: angiosarcoma, dosed 78 weeks, study length 135 weeks) was 77000 mg/kg/day. For the same compound, the TD50 (mouse, strain B6C3F1, males, inhaled, site: liver, lesion: hepatoma, dosed 78 weeks, study length 135 weeks) was 4530 mg/kg/day, the TD50 (mouse, strain B6C3F1, males, inhaled, site: liver, lesion: hepatoma, dosed 78 weeks, study length 154 weeks) was 5030 mg/kg/day and the TD50 (mouse, strain Ha/ICR, females, by gavage, site: forestomach, lesion: one or several types, types not named, dosed 88 weeks, study length 88 weeks) was 41.3 mg/kg/day (inactive). For the same compound, the TD50 (mouse, strain Ha/ICR, males, by gavage, site: forestomach, lesion: one or several types, types not named, dosed 88 weeks, study length 88 weeks) was 16.9 mg/kg/day (inactive), the TD50 (mouse, strain Han:NMRI, females, inhaled, site: all sites, lesion: malignant lymphoma, dosed 78 weeks, study length 130 weeks) was 846 mg/kg/day and the carcinogen call (mouse, strain Han:NMRI, females, inhaled, site: any site (literature study), lesion: benign tumor, dosed 78 weeks, study length 130 weeks) was “negative (inactive)”. The TD50 (mouse, strain Han:NMRI, females, inhaled, site: any site (literature study), lesion: malignant tumor, dosed 78 weeks, study length 130 weeks) was 573 mg/kg/day (inactive), the carcinogen call (mouse, strain Han:NMRI, females, inhaled, site: liver, lesion: several types, types named in the paper, dosed 78 weeks, study length 130 weeks) was “negative (inactive)” and the carcinogen call (mouse, strain Han:NMRI, females, inhaled, site: lung, lesion: alveolar/bronchiolar adenoma, dosed 78 weeks, study length 130 weeks) was “negative (inactive)”. For the same compound, the carcinogen call (mouse, strain Han:NMRI, females, inhaled, site: lung, lesion: alveolar/bronchiolar carcinoma, dosed 78 weeks, study length 130 weeks) was “negative (inactive)”, the carcinogen call (mouse, strain Han:NMRI, males, inhaled, site: all sites, lesion: malignant lymphoma, dosed 78 weeks, study length 130 weeks) was “negative (inactive)” and the carcinogen call (mouse, strain Han:NMRI, males, inhaled, site: any site (literature study), lesion: benign tumor, dosed 78 weeks, study length 130 weeks) was “negative (inactive)”. For the same compound, the carcinogen call (mouse, strain Han:NMRI, males, inhaled, site: any site (literature study), lesion: malignant tumor, dosed 78 weeks, study length 130 weeks) was “negative (inactive)”, the carcinogen call (mouse, strain Han:NMRI, males, inhaled, site: liver, lesion: hepatocellular adenoma, dosed 78 weeks, study length 130 weeks) was “negative (inactive)” and the carcinogen call (mouse, strain Han:NMRI, males, inhaled, site: liver, lesion: hepatocellular carcinoma, dosed 78 weeks, study length 130 weeks) was “negative (inactive)”. The carcinogen call (mouse, strain Han:NMRI, males, inhaled, site: liver, lesion: hepatoma, benign, dosed 78 weeks, study length 130 weeks) was “negative (inactive)”, the carcinogen call (mouse, strain Han:NMRI, males, inhaled, site: lung, lesion: alveolar/bronchiolar adenoma, dosed 78 weeks, study length 130 weeks) was “negative (inactive)” and the carcinogen call (mouse, strain Han:NMRI, males, inhaled, site: lung, lesion: malignant tumor, dosed 78 weeks, study length 130 weeks) was “negative (inactive)”. It also gave a TD50 (mouse, strain ICR, females, inhaled, site: any site (literature study), lesion: several types, types named in the paper, dosed 104 weeks, study length 107 weeks) of 1900 mg/kg/day, a TD50 (mouse, strain ICR, females, inhaled, site: liver, lesion: adenoma, dosed 104 weeks, study length 107 weeks) of 42300 mg/kg/day and a TD50 (mouse, strain ICR, females, inhaled, site: lung, lesion: adenocarcinoma, dosed 104 weeks, study length 107 weeks) of 3380 mg/kg/day. It also gave a TD50 (mouse, strain ICR, females, inhaled, site: lung, lesion: several types, types named in the paper, dosed 104 weeks, study length 107 weeks) of 3370 mg/kg/day, a TD50 (mouse, strain Swiss, females, inhaled, site: any site (literature study), lesion: malignant tumor, dosed 78 weeks, study length 145 weeks) of 9840 mg/kg/day and a TD50 (mouse, strain Swiss, females, inhaled, site: any site (literature study), lesion: several types, types named in the paper, dosed 78 weeks, study length 145 weeks) of 9190 mg/kg/day. It also gave a TD50 (mouse, strain Swiss, females, inhaled, site: liver, lesion: hepatoma, dosed 78 weeks, study length 145 weeks) of 121000 mg/kg/day, a TD50 (mouse, strain Swiss, females, inhaled, site: lung, lesion: one or several types, types not named, dosed 78 weeks, study length 145 weeks) of 35400 mg/kg/day and a TD50 (mouse, strain Swiss, males, inhaled, site: any site (literature study), lesion: malignant tumor, dosed 78 weeks, study length 145 weeks) of 6320 mg/kg/day.
